According to US6379670B1, “Methods for treatment of multiple sclerosis using peptide analogs of human myelin basic protein” (Neurocrine Biosciences, Inc., priority 1994, dated 2002):

Tested on: Lewis rats
Test: Induction of EAE by peptide analog
Format: in vivo, rat
Experimental: In addition, as a safety measure, but not essential to this invention, suitable peptide analogs may be tested for direct induction of EAE. As described in detail in Example 2, various amounts of peptide analogs are injected at the base of the tail of rats, and the rats examined daily for signs of EAE. A peptide analog which is not considered to cause EAE has a mean cumulative score of less than or equal to 1 over seven days when about 12 mg/kg or less in complete Freund's adjuvant is injected.
MBP peptide and peptide analogs were dissolved in phosphate-buffered saline (PBS) and emulsified with an equal volume of incomplete Freund's adjuvant supplemented with 4 mg/ml heat-killed Mycobacterium tuberculosis H37Ra in oil (Difco Laboratories, Inc., Detroit, Mich.). Rats were immunized subcutaneously at the base of the tail with 0.1-0.2 ml containing 500 μg of peptide in the emulsion and were monitored for clinical signs daily. EAE was scored on a scale of 0-4, as follows: 0, clinically normal; 1, flaccid tail; 2, hind limb weakness; 3, hind limb paralysis; 4, front and hind limbs affected.
The ability of peptide analogs to cause EAE is assessed in vivo. Rats were injected with MBP (87-99) or h88/A91 peptide analog as described in Example 2. Animals were monitored daily for evidence of EAE. Rats receiving MBP (87-99) had 100% incidence (18/18 rats) of EAE with a mean maximum clinical score of 2.4±0.2. In contrast, 0/12 rats receiving the peptide analog h88/A91 had EAE.

[1] = rats injected with 500 μg peptide in adjuvant

SMILES | induction of EAE by the peptide (rat, in vivo) | rats with EAE / rats injected [1] | incidence of EAE [1] | mean maximum clinical score (scale 0-4)
CC[C@H](C)[C@H](NC(=O)[C@H](CC(N)=O)NC(=O)[C@H](C)NC(=O)[C@H](Cc1ccccc1)NC(=O)[C@H](Cc1ccccc1)NC(=O)[C@@H](Cc1c[nH]cn1)NC(=O)[C@@H](N)C(C)C)C(=O)N[C@H](C(=O)N[C@H](C(=O)N1CCC[C@H]1C(=O)N[C@@H](CCCNC(=N)N)C(=O)N[C@H](C(=O)N1CCC[C@H]1C(=O)O)[C@@H](C)O)[C@@H](C)O)C(C)C [h88/A91] | does not induce EAE | 0/12 | – | –
CC[C@H](C)[C@H](NC(=O)[C@H](CC(N)=O)NC(=O)[C@H](CCCCN)NC(=O)[C@H](Cc1ccccc1)NC(=O)[C@H](Cc1ccccc1)NC(=O)[C@H](Cc1c[nH]cn1)NC(=O)[C@@H](N)C(C)C)C(=O)N[C@H](C(=O)N[C@H](C(=O)N1CCC[C@H]1C(=O)N[C@@H](CCCNC(=N)N)C(=O)N[C@H](C(=O)N1CCC[C@H]1C(=O)O)[C@@H](C)O)[C@@H](C)O)C(C)C [MBP (87-99)] | – | 18/18 | 100% | 2.4±0.2
